# Values quoted from earlier work as cited in patent US20040258838A1, “Method for preserving wood materials using precipitated copper compounds” (priority 2003, published 2004).
# System: fish
# Details: essentially 1 milligram per liter
smiles,measurement,value
[Cu] [copper],level at which copper is extremely toxic to fish,below 1 part per million
